From ChEMBL document CHEMBL3046966, “Structure and Fungicidal Activities of 2-Methoxyimino-N-methyl-2-[2-(substituted pyridyloxymethyl)phenyl]acetamide Derivatives” (1998) come the findings set out here.

What all share (format): functional
Assay [1] relates to Blumeria graminis f. sp. tritici. The assay is described as follows: Fungicidal activity against Blumeria graminis f. sp. tritici assessed as wheat powdery mildew disease control at 7.8 ppm foliar application for 24 hr after inoculation by curative manner.
Assay [2] relates to Botrytis cinerea. Description: Fungicidal activity against Botryotinia fuckeliana assessed as cucumber gray mold disease control at 31.3 ppm foliar application 24 hr before inoculation by preventive manner.
Assay [3] deals with Pseudoperonospora cubensis. The assay is described as follows: Fungicidal activity against Pseudoperonospora cubensis assessed as cucumber downy mildew disease control at 2 ppm foliar application 24 hr after inoculation by curative manner.
The subject of assay [4] is Pyricularia oryzae. Description: Fungicidal activity against Magnaporthe oryzae assessed as rice blast disease control at 7.8 ppm foliar application for 24 hr after inoculation by curative manner.
Assay [5] deals with Blumeria graminis f. sp. tritici. The assay is described as follows: Fungicidal activity against Blumeria graminis f. sp. tritici assessed as wheat powdery mildew disease control at 2 ppm foliar application for 24 hr before inoculation by preventive manner.
Assay [6] has as its system Pyricularia oryzae. The assay is described as follows: Fungicidal activity against Magnaporthe oryzae assessed as rice blast disease control at 31.3 ppm foliar application for 24 hr before inoculation by preventive manner.
Assay [7] has as its system Pseudoperonospora cubensis. The assay is described as follows: Fungicidal activity against Pseudoperonospora cubensis assessed as cucumber downy mildew disease control at 31.3 ppm foliar application 24 hr after inoculation by preventive manner.
Assay [8] has as its system Botrytis cinerea. The assay is described as follows: Fungicidal activity against Botryotinia fuckeliana assessed as cucumber gray mold disease control at 125 ppm foliar application 24 hr after inoculation by curative manner.
The test system of assay [9] is Podosphaera fuliginea. The assay is described as follows: Fungicidal activity against Podosphaera fuligineas assessed as cucumber […] mildew disease control at 7.8 ppm foliar application 24 hr before inoculation by preventive manner.
In assay [10] the test system is Podosphaera fuliginea. Description: Fungicidal activity against Podosphaera fuligineas assessed as cucumber […] mildew disease control at 7.8 ppm foliar application 24 hr after inoculation by curative manner.
Assay [11] relates to Blumeria graminis f. sp. tritici. Description: Fungicidal activity against Blumeria graminis f. sp. tritici assessed as wheat powdery mildew disease control at 125 ppm foliar application for 24 hr before inoculation by preventive manner.
Assay [12] has the same test system. The assay is described as follows: Fungicidal activity against Blumeria graminis f. sp. tritici assessed as wheat powdery mildew disease control at 125 ppm foliar application for 24 hr after inoculation by curative manner.
The test system of assay [13] is Podosphaera fuliginea. The assay is described as follows: Fungicidal activity against Podosphaera fuligineas assessed as cucumber […] mildew disease control at 125 ppm foliar application 24 hr after inoculation by curative manner.
Assay [14] relates to Pyricularia oryzae. Description: Fungicidal activity against Magnaporthe oryzae assessed as rice blast disease control at 125 ppm foliar application for 24 hr before inoculation by preventive manner.
The test system of assay [15] is Botrytis cinerea. The assay is described as follows: Fungicidal activity against Botryotinia fuckeliana assessed as cucumber gray mold disease control at 125 ppm foliar application 24 hr before inoculation by preventive manner.
The subject of assay [16] is Pseudoperonospora cubensis. Description: Fungicidal activity against Pseudoperonospora cubensis assessed as cucumber downy mildew disease control at 125 ppm foliar application 24 hr after inoculation by curative manner.
Assay [17] relates to Podosphaera fuliginea. The assay is described as follows: Fungicidal activity against Podosphaera fuligineas assessed as cucumber […] mildew disease control at 125 ppm foliar application 24 hr before inoculation by preventive manner.
Assay [18] has as its system Pseudoperonospora cubensis. Description: Fungicidal activity against Pseudoperonospora cubensis assessed as cucumber downy mildew disease control at 125 ppm foliar application 24 hr after inoculation by preventive manner.
Assay [19] relates to Pyricularia oryzae. The assay is described as follows: Fungicidal activity against Magnaporthe oryzae assessed as rice blast disease control at 125 ppm foliar application for 24 hr after inoculation by curative manner.
Assay [20] relates to Pseudoperonospora cubensis. The assay is described as follows: Fungicidal activity against Pseudoperonospora cubensis assessed as cucumber downy mildew disease control at 7.8 ppm foliar application 24 hr after inoculation by curative manner.
For assay [21], the system named is Pyricularia oryzae. The assay is described as follows: Fungicidal activity against Magnaporthe oryzae assessed as rice blast disease control at 31.3 ppm foliar application for 24 hr after inoculation by curative manner.
Assay [22] has as its system Podosphaera fuliginea. Description: Fungicidal activity against Podosphaera fuligineas assessed as cucumber […] mildew disease control at 31.3 ppm foliar application 24 hr before inoculation by preventive manner.
Assay [23] relates to Blumeria graminis f. sp. tritici. The assay is described as follows: Fungicidal activity against Blumeria graminis f. sp. tritici assessed as wheat powdery mildew disease control at 7.8 ppm foliar application for 24 hr before inoculation by preventive manner.
Assay [24] deals with Botrytis cinerea. Description: Fungicidal activity against Botryotinia fuckeliana assessed as cucumber gray mold disease control at 7.8 ppm foliar application 24 hr before inoculation by preventive manner.
Assay [25] relates to Botrytis cinerea. The assay is described as follows: Fungicidal activity against Botryotinia fuckeliana assessed as cucumber gray mold disease control at 2 ppm foliar application 24 hr after inoculation by curative manner.
Assay [26] concerns Podosphaera fuliginea. The assay is described as follows: Fungicidal activity against Podosphaera fuligineas assessed as cucumber […] mildew disease control at 2 ppm foliar application 24 hr before inoculation by preventive manner.
The subject of assay [27] is Podosphaera fuliginea. The assay is described as follows: Fungicidal activity against Podosphaera fuligineas assessed as cucumber […] mildew disease control at 31.3 ppm foliar application 24 hr after inoculation by curative manner.
For assay [28], the system named is Blumeria graminis f. sp. tritici. Description: Fungicidal activity against Blumeria graminis f. sp. tritici assessed as wheat powdery mildew disease control at 31.3 ppm foliar application for 24 hr after inoculation by curative manner.
The subject of assay [29] is Botrytis cinerea. Description: Fungicidal activity against Botryotinia fuckeliana assessed as cucumber gray mold disease control at 7.8 ppm foliar application 24 hr after inoculation by curative manner.
For assay [30], the system named is Podosphaera fuliginea. Description: Fungicidal activity against Podosphaera fuligineas assessed as cucumber […] mildew disease control at 2 ppm foliar application 24 hr after inoculation by curative manner.

Turning to `CNC(=O)/C(=N/OC)c1ccccc1COc1cccc(C(F)(F)F)n1`, the Activity (in assay [1]; in the assay on Botrytis cinerea [2]; in assay [3]; with Pyricularia oryzae [4]; in assay [5]; in the assay with Pyricularia oryzae [6]) was 90% in each case. Further, the Activity (in assay [7]; in the assay with Botrytis cinerea [8]; in the assay on Podosphaera fuliginea [9]; in the assay with Podosphaera fuliginea [10]) was 90% in each case.
In the case of `CNC(=O)/C(=N\OC)c1ccccc1COc1ccccn1`, the Activity is reported as 90% in assay [11]; below 90% in assay [12]; below 90% with Podosphaera fuliginea [13]; below 90% with Pyricularia oryzae [14]; below 90% in the assay on Botrytis cinerea [15]; below 90% in assay [16]. In addition, in the assay on Podosphaera fuliginea [17], the Activity is reported as below 90%.
Take `CNC(=O)/C(=N/OC)c1ccccc1COc1cc(C(F)(F)F)cc(Cl)n1`: the Activity was 90% in [11]; below 90% in assay [18]; 90% in assay [12]; 90% in the assay with Podosphaera fuliginea [13]; below 90% with Pyricularia oryzae [19]; 90% with Pyricularia oryzae [14]. The Activity in the assay on Botrytis cinerea [15] is on record as below 90%; in the assay with Podosphaera fuliginea [17] it was 90%; in the assay on Botrytis cinerea [8], below 90%; in assay [20], 90%.
`CNC(=O)/C(=N/OC)c1ccccc1COc1ccc(C(F)(F)F)cn1`: the Activity (in assay [1]; with Pyricularia oryzae [21]; in the assay with Podosphaera fuliginea [22]; in assay [23]; with Pyricularia oryzae [6]; in assay [7]) was 90% each time. In addition, the Activity (in the assay on Botrytis cinerea [24]; with Botrytis cinerea [25]; in assay [20]; in the assay on Podosphaera fuliginea [10]) was 90% throughout.
As for `CNC(=O)/C(=N/OC)c1ccccc1COc1ccc(C(F)(F)F)c(NC)n1`, the Activity was 90% in [18]; 90% in [12]; below 90% with Pyricularia oryzae [19]; below 90% in the assay on Pyricularia oryzae [14]; 90% in the assay on Botrytis cinerea [15]; 90% in the assay with Botrytis cinerea [8]. Also, the Activity (in the assay with Podosphaera fuliginea [9]; in assay [20]; with Podosphaera fuliginea [10]) was 90% throughout.
For the molecule `CNC(=O)/C(=N/OC)c1ccccc1COc1nc(Cl)c(Cl)c(C(F)(F)F)c1Cl`, the Activity is below 90% in [11]; below 90% in assay [12]; 90% with Podosphaera fuliginea [13]; below 90% in the assay with Pyricularia oryzae [14]; 90% in assay [16]; 90% in the assay on Podosphaera fuliginea [17]. Moreover, the Activity in the assay with Botrytis cinerea [8] is below 90%.
Regarding `CNC(=O)/C(=N/OC)c1ccccc1COc1nc(Cl)c(C(F)(F)F)cc1C(F)(F)F`, the Activity in the assay with Podosphaera fuliginea [26] is 90%; in assay [1] it was 90%; in the assay on Botrytis cinerea [2], 90%; in the assay on Pyricularia oryzae [19], below 90%; in [3], 90%; with Pyricularia oryzae [14], 90%. The Activity in assay [5] was 90%; in assay [16], below 90%; in the assay with Botrytis cinerea [8], 90%; in the assay on Podosphaera fuliginea [10], 90%.
`CNC(=O)/C(=N/OC)c1ccccc1COc1cccc(SC)n1`: the Activity in [11] is 90%; in assay [18] it was 90%; in assay [12] it was below 90%; with Podosphaera fuliginea [22] it was 90%; in the assay on Pyricularia oryzae [14] it was below 90%; in the assay on Botrytis cinerea [15] it was 90%. Further, the values for the Activity (in the assay on Podosphaera fuliginea [27]; in the assay on Botrytis cinerea [8]; in assay [20]) were 90%, below 90% and 90%, respectively.
For `CNC(=O)/C(=N/OC)c1ccccc1COc1cc(C(F)(F)F)ccn1`, the Activity in assay [11] was 90%; in assay [18], below 90%; with Pyricularia oryzae [21], 90%; in the assay with Podosphaera fuliginea [13], 90%; in assay [28], 90%; with Botrytis cinerea [15] it was below 90%. For the same molecule, the Activity in the assay on Pyricularia oryzae [6] is 90%; with Podosphaera fuliginea [17] it was 90%; with Botrytis cinerea [8], below 90%; in assay [20] it was 90%.
In the case of `CNC(=O)/C(=N/OC)c1ccccc1COc1cccc(Cl)n1`, the Activity (in assay [1]; in the assay with Pyricularia oryzae [21]; in [3]; in assay [5]; in the assay with Botrytis cinerea [29]; in the assay with Pyricularia oryzae [6]) was 90% throughout. For the same molecule, the Activity (in [7]; in the assay with Botrytis cinerea [24]; in the assay on Podosphaera fuliginea [9]; in the assay with Podosphaera fuliginea [10]) was 90% throughout.
For `CNC(=O)/C(=N/OC)c1ccccc1COc1cc(C(F)(F)F)nc(C(F)(F)F)c1`, the Activity (in assay [11]; in [18]; in assay [12]; in the assay with Podosphaera fuliginea [13]; in the assay with Pyricularia oryzae [14]; with Botrytis cinerea [15]) was below 90% throughout. Also, the Activity in assay [16] is 90%; in the assay on Podosphaera fuliginea [17], below 90%.
On to `CNC(=O)/C(=N/OC)c1ccccc1COc1ncccc1Cl`, for which the Activity (in [1]; with Botrytis cinerea [2]; in assay [23]; in the assay with Pyricularia oryzae [4]; in the assay on Pyricularia oryzae [6]; in assay [7]) was 90% throughout. In addition, the Activity (with Botrytis cinerea [25]; in the assay on Podosphaera fuliginea [9]; in assay [20]; in the assay on Podosphaera fuliginea [10]) was 90% each time.
`CNC(=O)/C(=N/OC)c1ccccc1COc1cccc(Br)n1`: the Activity (in assay [18]; in the assay with Botrytis cinerea [2]; with Podosphaera fuliginea [22]; in assay [28]; in the assay with Pyricularia oryzae [4]; in assay [5]) was 90% in each case. The Activity (with Botrytis cinerea [29]; in the assay with Pyricularia oryzae [6]; in assay [20]; with Podosphaera fuliginea [10]) was 90% in each case.
On to `CNC(=O)/C(=N/OC)c1ccccc1COc1ccc(C(F)(F)F)c(OC)n1`, for which the Activity (in the assay with Podosphaera fuliginea [26]; in assay [11]; in assay [1]; in the assay on Podosphaera fuliginea [30]; in the assay on Pyricularia oryzae [19]; in assay [3]) was 90% throughout. The Activity (in the assay with Pyricularia oryzae [14]; in assay [7]; in the assay with Botrytis cinerea [24]; in the assay on Botrytis cinerea [8]) was 90% each time.
In the case of `CNC(=O)/C(=N/OC)c1ccccc1COc1cccnc1Cl`, the Activity in [11] is below 90%; in [12], below 90%; in the assay on Botrytis cinerea [2], 90%; in the assay with Podosphaera fuliginea [22], 90%; in the assay on Pyricularia oryzae [14], below 90%; in the assay with Podosphaera fuliginea [27] it was 90%. The Activity (in assay [16]; with Botrytis cinerea [29]; in the assay with Botrytis cinerea [24]) was 90% throughout.
As for `CNC(=O)/C(=N/OC)c1ccccc1COc1nc(OC(C)C)ccc1C(F)(F)F`, the Activity in assay [18] is below 90%; in the assay with Pyricularia oryzae [21] it was 90%; in assay [28], 90%; in [23], 90%; in the assay on Botrytis cinerea [15], 90%; in the assay with Pyricularia oryzae [6], 90%. Moreover, the Activity with Botrytis cinerea [8] is below 90%; in the assay with Podosphaera fuliginea [9], 90%; in assay [20] it was 90%; with Podosphaera fuliginea [10], 90%.
